The record followed here is patent publication US11179348B2, “Combination comprising pterostilbene for the treatment of cancer” (FUNDACIÓN UNIVERSIDAD CATÓLICA DE VALENCIA SAN VICENTE …, priority 2015, dated 2021).

For experiment [1], the system named is MeWo melanoma. The experiment can be described thus: In vivo growth of MeWo melanoma xenografts in nu/nu mice. Set-up: species or system human. Conditions: MeWo-RFP; 35 days after inoculation; Pter 30 mg/kg i.v. every 48 h and/or CRC infusion 0.3 μg/h.
Experiment [2] relates to ACTH. The experiment can be described thus: Plasma ACTH levels (ELISA) in tumor-bearing mice. The format is in vivo. Particulars: 6 h circadian time. An excerpt: (§1) Measurement of ACTH, Corticosterone, and NORA Levels.
(§2) Plasma levels of ACTH (Calbiotech, Inc., Spring Valley, Calif.), corticosterone (Kamiyama Biomedical Co., Seattle, Wash.), and NORA (IBL, Hamburg, Germany) were quantified by ELISA according to the instructions of the suppliers.

For experiment [3], the system named is AsPC-1 pancreatic cancer. Put plainly: In vivo growth of AsPC-1 pancreatic cancer xenografts. Also on record: species or system human. Particulars: AsPC-1-RFP; 28 days after inoculation; Pter and/or CRC.
Experiment [4] concerns glucocorticoid receptors (GR). Put plainly: GR content of human cancer cells by [3H]-labeled ligand whole-cell binding assay.
In experiment [5] the test system is BxPC-3 pancreatic cancer. The experiment can be described thus: In vivo growth of BxPC-3 pancreatic cancer xenografts. Particulars: BxPC-3-RFP; 35 days after inoculation; Pter and/or CRC. Set-up: species or system human.
For experiment [6], the system named is MelJuso melanoma. The experiment can be described thus: In vivo growth of MelJuso melanoma xenografts in nu/nu mice. Set-up: species or system human. Particulars: MelJuso-RFP; 35 days after inoculation; Pter 30 mg/kg i.v. every 48 h and/or CRC infusion 0.3 μg/h.
The test system of experiment [7] is corticosterone. Put plainly: Plasma corticosterone levels (ELISA) in tumor-bearing mice. Type of experiment: in vivo. Particulars: 12 h circadian time.
Description: as §1, §2
(ELISA stands for enzyme-linked immunosorbent assay.)

Experiment [8] has as its system A2058 melanoma. The experiment can be described thus: In vivo growth of A2058 melanoma xenografts in nu/nu mice. Also on record: species or system human. Particulars: A2058-RFP; 35 days after inoculation; Pter 30 mg/kg i.v. every 48 h and/or CRC infusion 0.3 μg/h.

In the case of `C[C@]12C[C@H](O)[C@H]3[C@@H](CCC4=CC(=O)CC[C@@]43C)[C@@H]1CC[C@@H]2C(=O)CO` [CRC, corticosterone, reference compound], the Tumor vol. in experiment [1] amounted to 426 ± 116 mm^3; in experiment [3], 1066 ± 235 mm^3; in experiment [5], 588 ± 158 mm^3; in experiment [6] it was 240 ± 94 mm^3; in experiment [8], 857 ± 185 mm^3. Also, the ACTH is 106 ± 17 pg/mL plasma in experiment [2] (AsPC-1-bearing mice, day 28) and 55 ± 12 pg/mL plasma in experiment [2] (BxPC-3-bearing mice, day 35). In addition, the “GR number (binding sites/cell)” value in experiment [4] (A2058-RFP tumors, day 35) was 80 ± 7 10^3 GR/cell; in experiment [4] (AsPC-1-RFP tumors, day 28), 67 ± 7 10^3 GR/cell; in experiment [4] (BxPC-3-RFP tumors, day 35), 134 ± 36 10^3 GR/cell; in experiment [4] (MeWo-RFP tumors, day 35) it was 49 ± 7 10^3 GR/cell; in experiment [4] (MelJuso-RFP tumors, day 35), 46 ± 6 10^3 GR/cell. Further, the CRC in experiment [7] (A2058-bearing mice, day 35) was found to be 205 ± 48 ng/mL plasma; in experiment [7] (AsPC-1-bearing mice, day 28), 324 ± 48 ng/mL plasma; in experiment [7] (BxPC-3-bearing mice, day 35), 177 ± 36 ng/mL plasma; in experiment [7] (MeWo-bearing mice, day 35), 177 ± 29 ng/mL plasma; in experiment [7] (MelJuso-bearing mice, day 35), 164 ± 41 ng/mL plasma.
